Data on eight compounds can be found in patent US12692254B2, “Benzimidazole inhibitors of PAD enzymes” (BRISTOL-MYERS SQUIBB COMPANY, priority 2018, dated 2026).

By IC50 is commonly meant the concentration at which inhibition is half-maximal.

This assay has as its target human PAD4 (hPAD4) (Homo sapiens, UniProt Q9UM07). Description: RFMS human PAD4 functional assay (rapid-fire mass spectrum). It is filed as biochemical. To be noted: 5 nM hPAD4 enzyme, 250 μM BAEE, 50 μM Calcium; 30 min preincubation, 90 min reaction at 37° C. A digest of the protocol:
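PAD4 (10 nM) preincubated 30 min with compound (top final 50 μM), then BAEE substrate added in pH 7.5 HEPES buffer with DTT, 50 μM calcium, TPEN; 90 min at 37° C. After TCA quench, citrulline derivatized with phenyl glyoxal (4 mM final, 30 min, 37° C) and quantified by RapidFire MS against internal standard.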

human PAD4 (hPAD4), sequence (Q9UM07 whole entry): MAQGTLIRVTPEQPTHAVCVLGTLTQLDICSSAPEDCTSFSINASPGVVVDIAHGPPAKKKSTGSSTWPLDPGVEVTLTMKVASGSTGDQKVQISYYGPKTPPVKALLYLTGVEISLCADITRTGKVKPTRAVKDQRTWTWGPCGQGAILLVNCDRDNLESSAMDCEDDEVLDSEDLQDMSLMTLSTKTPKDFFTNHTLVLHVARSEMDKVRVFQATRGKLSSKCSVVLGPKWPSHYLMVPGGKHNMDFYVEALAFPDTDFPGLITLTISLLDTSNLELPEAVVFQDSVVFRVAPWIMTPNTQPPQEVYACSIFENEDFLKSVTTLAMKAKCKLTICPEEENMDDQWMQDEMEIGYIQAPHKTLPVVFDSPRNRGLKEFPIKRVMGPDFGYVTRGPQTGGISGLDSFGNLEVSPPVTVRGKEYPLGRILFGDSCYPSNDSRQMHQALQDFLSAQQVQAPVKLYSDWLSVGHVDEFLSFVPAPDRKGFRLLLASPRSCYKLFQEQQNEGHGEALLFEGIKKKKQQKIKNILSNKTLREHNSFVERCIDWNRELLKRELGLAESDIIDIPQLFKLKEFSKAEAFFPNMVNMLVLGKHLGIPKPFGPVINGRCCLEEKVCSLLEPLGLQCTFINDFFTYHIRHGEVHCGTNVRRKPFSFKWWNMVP

For the compound `COc1cc(C(=O)N2CC3CCC2[C@@H]3N)cc2nc(-c3cc4cccnc4n3CC3CC3)n(Cc3cnn(-c4cncc(F)c4)c3)c12` (stereo partly drawn) [Example 372, (7R)-2-{2-[1-(cyclopropylmethyl)-1H-pyrrolo[2,3-b]pyridin-2-yl]-1-{[1-(5-fluoropyridin-3-yl)-1H-pyrazol-4-yl]methyl}-7-methoxy-1H-1,3-benzodiazole-5-carbonyl}-2-azabicyclo[2.2.1]heptan-7-amine], the IC50 was determined as 0.032 µM. Take `COc1cc(C(=O)N2C[C@H]3CC[C@@H]2[C@@H]3N)cc2nc(-c3csc4ccc(Cl)cc34)n(CC3CN(c4ccnc(C#N)n4)C3)c12` [Example 315, 4-[3-({5-[(1R,4R,7R)-7-amino-2-azabicyclo[2.2.1]heptane-2-carbonyl]-2-(5-chloro-1-benzothiophen-3-yl)-7-methoxy-1H-1,3-benzodiazol-1-yl}methyl)azetidin-1-yl]pyrimidine-2-carbonitrile]: the IC50 was found to be 0.929 µM. Under `COc1cc(C(=O)N2C[C@H]3CC[C@@H]2[C@@H]3N)cc2nc(-c3cc4cccnc4n3CC3CC3)n(CC3CN(c4cncnc4C#N)C3)c12` [Example 52, 5-[3-({5-[(1R,4R,7R)-7-amino-2-azabicyclo[2.2.1]heptane-2-carbonyl]-2-[1-(cyclopropylmethyl)-1H-pyrrolo[2,3-b]pyridin-2-yl]-7-methoxy-1H-1,3-benzodiazol-1-yl}methyl)azetidin-1-yl]pyrimidine-4-carbonitrile] stands 0.156 µM; under `COc1cc(C(=O)N2C[C@H]3CC[C@@H]2[C@@H]3N)cc2nc(-c3cc4ccccc4n3CC3CC3)n(CC3CN(C(=O)c4cccc(Cl)c4)C3)c12` [Example 154, (1R,4R,7R)-2-(1-{[1-(3-chlorobenzoyl)azetidin-3-yl]methyl}-2-[1-(cyclopropylmethyl)-1H-indol-2-yl]-7-methoxy-1H-1,3-benzodiazole-5-carbonyl)-2-azabicyclo[2.2.1]heptan-7-amine], 0.021 µM; under `COc1cc(C(=O)N2C[C@H]3CC[C@@H]2[C@@H]3N)cc2nc(-c3cc4cccnc4n3C)n(CC3CN(c4ncccn4)C3)c12` [Example 83, (1R,4R,7R)-2-(7-methoxy-2-{1-methyl-1H-pyrrolo[2,3-b]pyridin-2-yl}-1-{[1-(pyrimidin-2-yl)azetidin-3-yl]methyl}-1H-1,3-benzodiazole-5-carbonyl)-2-azabicyclo[2.2.1]heptan-7-amine], 0.44 µM.

`COc1cc(C(=O)N2CC3CCC2[C@@H]3N)cc2nc(-c3cc4ccccc4n3CC3CC3)n(Cc3cnn(-c4cccc(C)n4)c3)c12` (stereo partly drawn) [Example 381, (7R)-2-{2-[1-(cyclopropylmethyl)-1H-indol-2-yl]-7-methoxy-1-{[1-(6-methylpyridin-2-yl)-1H-pyrazol-4-yl]methyl}-1H-1,3-benzodiazole-5-carbonyl}-2-azabicydo[2.2.1]heptan-7-amine]: the IC50 stood at 0.037 µM. With `COc1cc(C(=O)N2C[C@H]3CC[C@@H]2[C@@H]3N)cc2nc(-c3cc4ccccc4n3CC3CC3)n(CCCOc3ccc(C#N)cc3)c12` [Example 260, 4-(3-{5-[(1R,4R,7R)-7-amino-2-azabicyclo[2.2.1]heptane-2-carbonyl]-2-[1-(cyclopropylmethyl)-1H-indol-2-yl]-7-methoxy-1H-1,3-benzodiazol-1-yl}propoxy)benzonitrile] the figure was 0.048 µM; with `COc1cc(C(=O)N2C[C@H]3CC[C@@H]2[C@@H]3N)cc2nc(-c3cc4cccnc4n3C)n(C[C@@H]3CCN(c4ncccn4)C3)c12` [Example 232, (1R,4R,7R)-2-(7-methoxy-2-{1-methyl-1H-pyrrolo[2,3-b]pyridin-2-yl}-1-{[(3S)-1-(pyrimidin-2-yl)pyrrolidin-3-yl]methyl}-1H-1,3-benzodiazole-5-carbonyl)-2-azabicyclo[2.2.1]heptan-7-amine], 0.31 µM.
